Source: US20260008784A1 (VASTHERA CO., LTD., priority 2022, published 2026)

Experiments:
[1] = tested on: human pulmonary artery endothelial cell (PAEC); assay: VEGF-induced proliferation assay, PAEC (PrxII siRNA); format: cell-based; settings: for Degree of PAEC proliferation: VEGF-A 25 ng/mL, percent of untreated control; for EC50: Homo sapiens, Endothelial cell, effective concentration increasing cell proliferation by 50%, VEGF-stimulated
Protocol: (§1) HAECs and PAECs were transfected with a PrxII-specific siRNA using RNAi MAX transfection reagent according to manufacturer's protocol. After 24 hours, transfected cells (3,000 cells/well) were seeded in a 96-well culture plate. At 12 h after seeding, cells were serum-starved for additional 18 h in EBM basal medium containing 0.5% FBS. Test compounds were serially diluted with the same basal medium containing 0.5% FBS, added to the cells ([…]), and incubated for 2 h. After treatment, cells were placed in fresh EBM medium containing 0.5% FBS and VEGF-A (25 ng/mL) for growth factor stimulation and further cultured for 24 h.
(§2) The degree of cell proliferation was measured using the Cell Titer-GLO kit ([…]). Data are the percent of luminescence intensity averaged from three replicate wells versus that of untreated control group.
In human aortic endothelial cell (HAEC) and human pulmonary artery endothelial cell (PAEC) in which PrxII was knocked out by transfecting the PrxII siRNA, the ability of test compounds to augment the VEGF-induced proliferation of vascular endothelial cells was evaluated. In Table 7, the degree of proliferation in the compound-treated groups is expressed as percent of the degree of proliferation in untreated control group. The effective concentrations of test compounds increasing cell proliferation by 50% (EC50) is also listed.

[2] = tested on: Tyr 1175 phosphorylation of VEGF receptor-2 (VEGFR2) in HAEC; assay: Immunoblot of VEGF-mediated signaling in PrxII knock-down HAEC; format: cell-based, human; settings: for Effect on phosphorylation of Tyr 1175 on VEGFR2: HAECs depleted of PrxII expression, FIG. 5
Protocol: Cells were quickly washed in ice-cold phosphate-buffered saline (PBS) and lysed in extraction buffer containing 20 mM Hepes (pH 7.0), 1% Triton X-100, 150 mM NaCl, 10% glycerol, 1 mM EDTA, 2 mM EGTA, and 1 mM DTT, 5 mM Na3VO4, 5 mM NaF, 1 mM AEBSF, aprotinin (5 μg/mL), and leupeptin (5 μg/mL). After cen-trifugation at 12,000×g, the clarified cell extracts were used for immunoblotting. For re-blotting, the immunoblots were retrieved in a solution of 67 mM Tris (pH 6.7), 2% SDS, and 100 mM 2-mercaptoethanol at 60° C. for 30 min to remove antibodies and rinsed three times with a Tris-buffered saline (TBS) solution containing 1% Triton X-100. The retrieved membranes were subjected to new immunoblotting.
In human aortic endothelial cell (HAEC) and human pulmonary artery endothelial cell (PAEC) in which PrxII was knocked out by transfecting the PrxII siRNA, the ability of test compounds to replace the cellular function of PrxII was evaluated. That is, the efficacy of the new compounds was verified in terms of signaling pathways induced by VEGF that regulates the growth and migration of vascular endothelial cells in the aorta and pulmonary artery. Activation of VEGF-induced signaling pathway was analyzed by an immunoblot method using an antibody that specifically recognizes phosphorylation of Tyr 1175, which is a major phosphorylation site on VEGF receptor-2 (VEGFR2).

[3] = tested on: human aortic smooth muscle cell (HASMC); assay: PDGF-induced proliferation assay, HASMC (PrxII siRNA); format: cell-based; settings: for Degree of HASMC proliferation: PDGF-BB 25 ng/mL, percent of untreated control; for IC50: Homo sapiens, HASMC, 50% growth inhibition, PDGF-stimulated
Protocol: as §1, with “HASMCs” for “HAECs”, “PASMCs” for “PAECs”, “SmBM” for “EBM”, “PDGF-BB” for “VEGF-A”
as §2
(§3) In human aortic smooth muscle cell (HASMC) and human pulmonary artery smooth muscle cell (PASMC) in which PrxII was knocked out by transfecting the PrxII siRNA, the ability of test compounds to inhibit the PDGF-induced proliferation of vascular smooth muscle cells was evaluated. In Table 6, the degree of proliferation in the compound-treated groups is expressed as percent of the degree of proliferation in untreated control group. The concentrations of test compounds corresponding to 50% growth inhibition (IC50) is also listed.

[4] = tested on: human pulmonary artery smooth muscle cell (PASMC); assay: PDGF-induced proliferation assay, PASMC (PrxII siRNA); format: cell-based; settings: for Degree of PASMC proliferation: PDGF-BB 25 ng/mL, percent of untreated control; for IC50: Homo sapiens, PASMC, 50% growth inhibition, PDGF-stimulated
Protocol: as §1, with “HASMCs” for “HAECs”, “PASMCs” for “PAECs”, “SmBM” for “EBM”, “PDGF-BB” for “VEGF-A”
as §2, §3

NIH-3T3 cells = assay: Intracellular H2O2-eliminating activity (CM-H2DCF-DA fluorescence); format: cell-based; settings: Mus musculus, NIH3T3, glucose oxidase, concentration at 50% reduction of intracellular H2O2
Protocol: The activity of test compounds in present invention to eliminate intracellular H2O2 was measured as follows. NIH-3T3 cells (ATCC) were seeded in a 35-mm culture dish at 2×10^5 cells/well. After culture for 24 hours, cells were serum-starved with phenol red free-basal DMEM containing 0.5% FBS for 6 h. Starved NIH 3T3 cells were pretreated with compounds diluted with phenol red free-basal DMEM at concentrations ([…]) for 30 min, followed by treatment with 20 mU of glucose oxidase (Gox) for 30 min. A reactive oxygen species-sensitive fluorescence dye, carboxymethyl-dichlorofluorescein-diacetate (CM-H2DCF-DA), which was prepared in 1 mM DMSO stock and diluted 500 times in phenol red free-basal DMEM, was added to the cells and incubated for 5 min. Then, cells were quickly rinsed with basal medium. Images were taken at excitation 497 nm/emission 518 nm settings using a fluorescence microscope. Three images at 10× magnification per sample were obtained, and fluorescence intensities from 30 or more individual cells per image were averaged.
The intracellular H2O2-eliminating activity of test compounds in present invention was measured using a live-cell imaging fluorescence probe (CM-HaDCF-DA). H2O2-eliminating activity was measured depending on ascending concentrations of the test compound and expressed as the percent of activity compared to the untreated control group. EC50 represents the concentration of test compound at 50% reduction of intracellular H2O2.

Protocol for in vitro: Cytotoxicity tests were performed against vascular endothelial cells, vascular smooth muscle cells and hepatocytes. After treatment with ascending concentrations of each compound, the concentration of test compound corresponding to 50% cell viability (CC50) was measured.

| SMILES | Degree of PAEC proliferation ([1]; 2.5 nM) [%] | Degree of PAEC proliferation ([1]; 5 nM) [%] | Degree of PAEC proliferation ([1]; 10 nM) [%] | Degree of PAEC proliferation ([1]; 25 nM) [%] | Degree of PAEC proliferation ([1]; 50 nM) [%] | Degree of PAEC proliferation ([1]; 100 nM) [%] | EC50 [1] [nM] | Effect on phosphorylation of Tyr 1175 on VEGFR2 [2] | Degree of HASMC proliferation ([3]; 2.5 nM) [%] | Degree of HASMC proliferation ([3]; 5 nM) [%] | Degree of HASMC proliferation ([3]; 10 nM) [%] | Degree of HASMC proliferation ([3]; 25 nM) [%] | IC50 [3] [nM] | Degree of PASMC proliferation ([4]; 2.5 nM) [%] | Degree of PASMC proliferation ([4]; 5 nM) [%] | Degree of PASMC proliferation ([4]; 10 nM) [%] | Degree of PASMC proliferation ([4]; 25 nM) [%] | Degree of PASMC proliferation ([4]; 50 nM) [%] | Degree of PASMC proliferation ([4]; 100 nM) [%] | IC50 [4] [nM] | also measured |
| --- | --- | --- | --- | --- | --- | --- | --- | --- | --- | --- | --- | --- | --- | --- | --- | --- | --- | --- | --- | --- | --- |
| CN1C(=O)C2(C)SSCC1C(=O)N2C (centres unmarked) [Compound 1, 1,6,8-trimethyl-2,3-dithia-6,8-diazabicyclo[3.2.2]nonane-7,9-dione] | 104.7 | 120.0 | 143.8 | 164.3 | 158.8 | 145.5 | 9.54 | strongly abolish the phosphorylation | 70.0 | 43.9 | 17.1 | 1.5 | 4.18 | 70.8 | 49.8 | 29.4 | 14.3 | 0.0 | 0.0 | 5.01 | Concentrations at which phosphorylation of Tyr 1175 on VEGFR2 is significantly reduced ([2]; HAECs, PrxII knock-down, FIG. 4): above 2.5 nM; CC50 (in vitro): 230000 nM; EC50 (NIH-3T3 cells): 8.25 nM |
| CN1C(=O)C2CSSC1(C)C(=O)N2Cc1ccc2ccccc2n1 (centres unmarked) [Compound 5, 1,8-dimethyl-6-(quinolin-2-ylmethyl)-2,3-dithia-6,8-diazabicyclo[3.2.2]nonane-7,9-dione] | 106.1 | 129.7 | 152.3 | 165.6 | 167.7 | 147.4 | 5.03 | strongly abolish the phosphorylation | 62.3 | 52.4 | 36.9 | 9.7 | 4.87 | 71.3 | 48.3 | 37.5 | 26.8 | 1.9 | 2.5 | 5.64 | CC50 (in vitro): > 500000 nM; EC50 (NIH-3T3 cells): 7.77 nM |
| O=C1C2CSSC3(COCCN13)C(=O)N2Cc1ccccc1 (centres unmarked) [Compound 8, 12-benzyltetrahydro-5H,10H-4,10a-(epiminomethano)[1,4]oxazino[3,4-c][1,2,4]dithia zepine-5,11-dione] | 108.5 | 124.9 | 143.4 | 164.8 | 158.1 | 144.0 | 5.12 |  | 75.1 | 40.1 | 46.9 | 30.2 | 6.46 | 57.7 | 41.7 | 24.8 | 5.7 | 0.0 | 0.0 | 3.52 | CC50 (in vitro): 312000 nM; EC50 (NIH-3T3 cells): 6.57 nM |
| CCN1C(=O)C2(C)SSCC1C(=O)N2CC (centres unmarked) [Compound 20, 6,8-diethyl-1-methyl-2,3-dithia-6,8-diazabicyclo[3.2.2]nonane-7,9-dione] | 109.2 | 124.3 | 133.5 | 166.5 | 180.9 | 180.4 | 10.3 | strongly abolish the phosphorylation | 85.8 | 58.7 | 34.9 | 12.3 | 6.69 | 82.2 | 51.5 | 31.6 | 21.1 | 7.3 | 5.2 | 6.17 |  |
